Laboratory results as given in patent US20260308172A1, “TRICYCLIC COMPOUNDS FOR TREATMENT OF BACTERIAL INFECTIONS” (priority 2023, published 2026).
In brackets after ≈: the same amount, converted by molar mass.

Key:
[1] = tested on: Escherichia coli ATCC 25922; test: Minimal Inhibitory Concentration (MIC) assay, Escherichia coli ATCC 25922; format: cell-based; details: ATCC25922, 20 h, read-out: MIC Escherichia coli ATCC25922
How it was run: (§1)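 Broth microdilution in cation-adjusted Mueller Hinton broth with 2-fold serial compound dilutions, inoculum 5×10^5 CFU/mL. Plates incubated 20 h at 35 °C in ambient air. MIC (μg/mL) is the lowest concentration preventing visible growth; K. pneumoniae 43816 is a rifampin-resistant mutant.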

[2] = Human Microsome Stability Assay; format: in vitro ADME; details: 1 μM compound, 0.5 mg/mL liver microsomal protein, 1 mM NADPH, pH 7.4, 37° C., 0-30 minutes; for CLint scaled at 1 µM: human, liver microsomes, read-out: Clearance of Human microsome
[3] = tested on: efflux-deficient E. coli strains; details: in words; Bioorganic Chemistry 102 (2020) 104055; cited from earlier work
LPS synthesis pathway = details: in words; Bioorganic Chemistry 102 (2020) 104055; cited from earlier work
[4] = tested on: Klebsiella pneumonia ATCC 43816; test: Minimal Inhibitory Concentration (MIC) assay, Klebsiella pneumonia ATCC 43816; format: cell-based; details: Klebsiella pneumoniae, ATCC43816, 20 h, read-out: MIC Klebsiella pneumoniae ATCC43816
How it was run: as §1

Compound	MIC [1] [µg/mL]	CLint scaled at 1 µM [2] [mL/min/kg]	antibiotic activity against efflux-deficient E. coli strains [3]	LPS synthesis pathway inhibition activity (LPS synthesis pathway)	MIC [4] [µg/mL]	Clearance of Human microsome [2] [mL/min/kg]
CC(=O)N1CCc2cc(S(=O)(=O)N3CCN(c4cc(Cl)cc(C(F)(F)F)c4)CC3)ccc21 [Compound F-1, reference compound]	> 24	14	displaying antibiotic activity against efflux-deficient E. coli strains	having LPS synthesis pathway inhibition activity	> 24	
NCCC(=O)NC1CCC(Oc2cc(Cl)nc(N3CCN(S(=O)(=O)c4ccc5c(c4)OC[C@H]4[C@H](CO)OC(=O)N54)CC3)c2)CC1 (stereo partly drawn) [Example 051, N-[4-[[2-[4-[[(3R,3aS)-3-(hydroxymethyl)-1-oxo-3a,4-dihydro-3H-oxazolo[4,3-c][1,4]benzoxazin-7-yl]sulfonyl]piperazin-1-yl]-6-chloro-4-pyridyl]oxy]cyclohexyl]-3-amino-propanamide]	3.7 (≈ 5.56 µM)	13.1			3.65 (≈ 5.49 µM)	
NCC(=O)N1CCC(C(F)(F)c2cc(Cl)nc(N3CCN(S(=O)(=O)c4ccc5c(c4)OC[C@@H]4[C@H](CO)OC(=O)N54)CC3)c2)CC1 [Example 053, (3R,3aR)-7-[4-[4-[[1-(2-aminoacetyl)-4-piperidyl]-difluoro-methyl]-6-chloro-2-pyridyl]piperazin-1-yl]sulfonyl-3-(hydroxymethyl)-3a,4-dihydro-3H-oxazolo[4,3-c][1,4]benzoxazin-1-one]	0.61 (≈ 0.909 µM)	12.2			0.61 (≈ 0.909 µM)	
NC[C@H]1OC(=O)N2c3ccc(S(=O)(=O)N4CCN(c5cc(C(F)(F)F)cc(Cl)n5)CC4)cc3OC[C@@H]12 (relative stereo) [Example 007]	0.46 (≈ 0.84 µM)	9.6			0.91 (≈ 1.66 µM)	
C[N+]1(CCN)CCC[C@H]1C(=O)N[C@H]1CC[C@H](C(F)(F)c2cc(Cl)nc(N3CCN(S(=O)(=O)c4ccc5c(c4)OC[C@@H]4[C@H](CO)OC(=O)N54)CC3)c2)CC1 (stereo in doubt) [Example 062, (2S)-1-(2-aminoethyl)-N-[4-[[2-chloro-6-[4-[[(3R,3aR)-3-(hydroxymethyl)-1-oxo-3a,4-dihydro-3H-oxazolo[4,3-c][1,4]benzoxazin-7-yl]sulfonyl]piperazin-1-yl]-4-pyridyl]-difluoro-methyl]cyclohexyl]-1-methyl-pyrrolidin-1-ium-2-carboxamide;chloride]	0.67				0.67	6.2
